In US7008961B1, “Composition and method for treating carcinoma” (priority 1995, dated 2006):
Where two headings read alike, the source gives them in different places.

Columns and labels:
Swiss Webster mice = assay type: in vivo; conditions: s.c. every other day for 2 weeks
Description: The toxicity of two solvents for Rh-123, DMSO and alcohol-glucose, was studied in 60-day-old Swiss Webster mice (Simonsen Laboratories, Inc., Gilroy, Calif.). For each solvent there were five groups of five mice each, with the Rh-123 dose per group being 0, 2.0, 7.5, 15, and 20 mg/kg of body weight. A sixth group of five mice were not given any solvent or Rh-123. The solvents, with and without Rh-123, were administered at a concentration of 50% by volume DMSO in distilled water, and 5% alcohol by volume in a 5% by weight solution of glucose in distilled water. […] The concentration of Rh-123 was 5 mg/ml. Appropriate controls were utilized. The mice were injected subcutaneously every other day for 2 weeks.

[1] = test system: autochthonous rat prostate complex adenocarcinoma (ARPCA); assay: Induced autochthonous rat prostate adenocarcinoma in L-W rats; assay type: in vivo; conditions: 15 mg/kg BW s.c. every other day for six doses
Description: To determine the effectiveness of Rh-123 on induced autochthonous rat prostate adenocarcinoma developed within the prostate gland and seminal vesicles of L-W rats, thirteen L-W rats were inoculated intravenously with acidified MNU (30 mg/kg of body weight (BW)). Following the single inoculation of MNU, the rats were each implanted subcutaneously with 50 mg TP sealed in a silastic tube. Three implants of TP were administered, each at intervals of 2 months. After a latent period of 4–6 months, small palpable tumors were detected in the abdomen. The rats were then administered Rh-123 (15 mg/kg BW) subcutaneously every other day for six doses. The Rh-123 was dissolved in a 5% (by volume) ethanol-5% (by weight) glucose solution in sterile water at a concentration of 5 mg/ml. The rats were sacrificed 1 week after the last dose of Rh-123 and their tissues were fixed in 10% formalin.

[2] = test system: PC-3 prostate cancer cells; assay: MTT cytotoxicity/viability assay, PC-3; assay type: cell-based, human
Description: (§1) Assays of Rh-123 toxicity were done with three human prostate cancer cell lines, […], et al.: Establishment and characterization of a human prostatic carcinoma cell line, Invest Urol 17:16-23, 1979), DU-145 (Stone […], et al.: Isolation of a human prostatic carcinoma cell line (DU145), Int J Cancer 21:274-281, 1978), and LNCaP (Horoszewitz J, Leong […], et al.: LNCaP model of human prostatic carcinoma, Cancer Res 43:1809-1818, 1983), and a non-tumorigenic diploid prostate fibroblast cell strain (NPF-209) derived in our laboratories from a normal adult prostate. The NPF cells were used as controls, i.e., for comparison. The cells were maintained in disposable plastic culture vessels in a 1:1 mix of Dulbecco's modified Eagle's medium and Ham's F12 (DMEM/F12, from Sigma Chemical Co, St. Louis, Mo.) supplemented with 10% fetal bovine serum (FBS, from HyClone Labs, Inc., Logan, Utah). 3-[4,5-Dimethylthiazol-2-yl]-2,5-diphenyltetrazolium bromide (MTT), DMSO, and other chemicals were also obtained from Sigma. […] Two different in vitro assays were used to assess cell viability following Rh-123 treatment, namely, • i) colony formation by a clonal assay procedure ([…], Ham R G: Clonal growth of human keratinocytes with small amounts of dialyzed serum, In Vitro 16:526-538, 1980); and • ii) viability of cells determined by the MTT assay utilizing previously described techniques (Alley […], Monks A, et al.: Feasibility of drug screening with panels of human tumor cell lines using a microculture tetrazolium assay, Cancer Res 40:589-601, 1988). Cytotoxicity due to Rh-123 treatment was determined with the human prostate cancer cells grown in 96-well disposable microtiter plates. […] The plates were next read at A540 […] with an Emax precision microplate reader (Molecular Devices Corporation, Menlo Park, Calif.). […] The cell-bound dye is dissolved with DMSO and spectrophotometrically quantitated by absorbance at a wavelength of 540 nm. The OD540 nm reading is a measure of the number of viable cells present in the test sample. […]

[3] = test system: LNCaP prostate cancer cells; assay: MTT cytotoxicity/viability assay, LNCaP; assay type: cell-based, human
Description: (§2) Assays of Rh-123 toxicity were done with three human prostate cancer cell lines, […], et al.: Establishment and characterization of a human prostatic carcinoma cell line, Invest Urol 17:16-23, 1979), DU-145 (Stone […], et al.: Isolation of a human prostatic carcinoma cell line (DU145), Int J Cancer 21:274-281, 1978), and LNCaP (Horoszewitz J, Leong […], et al.: LNCaP model of human prostatic carcinoma, Cancer Res 43:1809-1818, 1983), and a non-tumorigenic diploid prostate fibroblast cell strain (NPF-209) derived in our laboratories from a normal adult prostate. The NPF cells were used as controls, i.e., for comparison. […] Two different in vitro assays were used to assess cell viability following Rh-123 treatment, namely, • i) colony formation by a clonal assay procedure ([…], Ham R G: Clonal growth of human keratinocytes with small amounts of dialyzed serum, In Vitro 16:526-538, 1980); and • ii) viability of cells determined by the MTT assay utilizing previously described techniques (Alley […], Monks A, et al.: Feasibility of drug screening with panels of human tumor cell lines using a microculture tetrazolium assay, Cancer Res 40:589-601, 1988). Cytotoxicity due to Rh-123 treatment was determined with the human prostate cancer cells grown in 96-well disposable microtiter plates. […] The OD540 nm reading is a measure of the number of viable cells present in the test sample. […]

[4] = test system: DU-145 prostate cancer cells; assay: MTT cytotoxicity/viability assay, DU-145; assay type: cell-based, human
Description: as §1

[5] = test system: NPF non-tumorigenic diploid prostate fibroblast cells; assay: MTT cytotoxicity/viability assay, NPF; assay type: cell-based, human
Description: as §2

[6] = test system: PC-3 prostate cancer cells; assay: Clonogenic assay (colony growth), PC-3; assay type: cell-based, human
Description: (§3) Assays of Rh-123 toxicity were done with three human prostate cancer cell lines, […], et al.: Establishment and characterization of a human prostatic carcinoma cell line, Invest Urol 17:16-23, 1979), DU-145 (Stone […], et al.: Isolation of a human prostatic carcinoma cell line (DU145), Int J Cancer 21:274-281, 1978), and LNCaP (Horoszewitz J, Leong […], et al.: LNCaP model of human prostatic carcinoma, Cancer Res 43:1809-1818, 1983), and a non-tumorigenic diploid prostate fibroblast cell strain (NPF-209) derived in our laboratories from a normal adult prostate. The NPF cells were used as controls, i.e., for comparison. […] Two different in vitro assays were used to assess cell viability following Rh-123 treatment, namely, • i) colony formation by a clonal assay procedure ([…], Ham R G: Clonal growth of human keratinocytes with small amounts of dialyzed serum, In Vitro 16:526-538, 1980); and • ii) viability of cells determined by the MTT assay utilizing previously described techniques (Alley […], Monks A, et al.: Feasibility of drug screening with panels of human tumor cell lines using a microculture tetrazolium assay, Cancer Res 40:589-601, 1988). Clonogenic potential of the treated human prostate cancer cells was determined on 24-hour-old cells seeded in 60 mm disposable dishes (1-2×10^2 cells/dish). […]

[7] = test system: LNCaP prostate cancer cells; assay: Clonogenic assay (colony growth), LNCaP; assay type: cell-based, human
Description: as §3

[8] = test system: DU-145 prostate cancer cells; assay: Clonogenic assay (colony growth), DU-145; assay type: cell-based, human
Description: as §3

[9] = test system: normal human adult prostate fibroblasts (NPF); assay: Clonogenic assay (colony growth), NPF; assay type: cell-based
Description: as §3

[10] = test system: metastatic hormone-refractory prostate cancer; assay: Phase I study: prostate specific acid phosphatase in blood after a single dose; assay type: in vivo, human; conditions: Patient 4, Level II (24 mg/m^2), single infusion
Description: The FDA has approved human clinical Phase I study of Rh-123. This phase evaluates the toxicity of Rh-123. The objective of the study is to determine safe dosing levels for Rh-123 starting at a level known to be safe for animals (about 0.3 mg/kg, which is equivalent to about 12 mg/m^2 for the typical prostate cancer patent), and proceeding upward in dosage until signs of moderate toxicity are observed. The Phase I study includes 21 volunteer patients with metastatic hormone-refractory prostate cancer to establish toxicity in a single dose escalation schedule. Only one dose per volunteer participant has been approved to date by the FDA, starting at 12 mg/m^2 at level I (three participants per level), and increasing in subsequent levels until dose-limiting toxicity is observed. Using a solution of four milligrams of Rh-123 per milliliter of a solution which includes 5% alcohol and 5% glucose in distilled water, the FDA has approved the dose escalation schedule shown in Table I: [table] As of the date of this application for patent, seven patients have been treated in accordance with the protocol described above.

[11] = test system: transplantable rat prostate tumor R3327-H (Dunning); conditions: saline suspension, s.c. every other day, 15 mg/kg body weight; cited from earlier work
[12] = test system: transplantable tumor P-A III; conditions: cited from earlier work

COC(=O)c1ccccc1-c1c2ccc(=N)cc-2oc2cc(N)ccc12.Cl [Rh-123, methyl o-(6-amino-3-imino-3H-xanthen-9-yl) benzoate monohydrochloride]
mortality (Swiss Webster mice; 15 mg/kg Rh-123 in 50% DMSO, group of five mice): one of five mice died | mortality (Swiss Webster mice; 20 mg/kg Rh-123 in 50% DMSO, group of five mice): Three of five mice died | mortality (Swiss Webster mice; 20 mg/kg Rh-123 in alcohol-glucose solution): no mortality | effect on normal surrounding tissue [1]: no change | gross changes in the tumor mass of the prostate complex [1]: No gross changes | microscopic examination of tumor tissue of prostate complex ([1]; sacrificed 1 week after last dose): marked cellular and acinar destruction, pyknosis, cytoplasmic smearing, and intraepithelial cyst formation | recovery of treated cells in Rh-123-free normal growth medium ([2]; PC-3): poor | relative sensitivity to Rh-123 exposure among the cancer cell lines ([2]; PC-3): most sensitive | loss of viable cells ([2]; PC-3, exposed 2 days or longer, concentrations as low as 1.25–2 μg/ml): marked | recovery of treated cells in Rh-123-free normal growth medium [3]: poor | loss of viable cells ([3]; exposed 2 days or longer, concentrations as low as 1.25–2 μg/ml): marked | recovery of treated cells in Rh-123-free normal growth medium ([4]; DU-145): poor | relative sensitivity to Rh-123 exposure among the cancer cell lines ([4]; DU-145): more refractory than either the PC-3 or the LNCaP cells | loss of viable cells ([4]; DU-145, exposed 2 days or longer, concentrations as low as 1.25–2 μg/ml): marked | growth inhibition due to Rh-123 treatment ([5]; 0–80 μg/ml, FIG. 5): much less than that observed with tumorigenic cells | viability of cells ([5]; after prolonged Rh-123 exposures): remained relatively high | suppression of colony growth ([6]; PC-3, 10 μg/ml for 72 hours): Complete suppression | colony growth ([6]; PC-3, exposure to 10 μg/ml): greatly suppressed | suppression of colony growth ([7]; 10 μg/ml for 72 hours): Complete suppression | colony growth ([7]; exposure to 10 μg/ml): greatly suppressed | suppression of colony growth ([8]; DU-145, 10 μg/ml for 72 hours): Complete suppression | growth suppression (colony growth) ([8]; DU-145, compared with PC-3 and LNCaP): less marked | maximal suppression of colony growth ([9]; 72-hour exposure): 28 % of control | suppression of colony growth ([9]; 72-hour exposure to 50 μg/ml (data not shown)): Total suppression was not achieved | course of prostate specific acid phosphatase in blood after 48 hours [10]: steadily decreased until two months after the infusion | effect on tumor (histology) [11]: significant destructive alteration of the acinar cells | effect on tumor cells ([12]; Rh-123 dissolved in DMSO): significant destruction of tumor cells | sensitivity of tumor to Rh-123 ([12]; Rh-123 dissolved in DMSO): highly sensitive | toxicity in normal cells ([12]; rat, in vivo): no toxicity noted | tumor growth after injection of tumor remnants into untreated susceptible L-W rats ([12]; remnants of Rh-123-treated tumor): no tumor growth
